Molecules are shown by their SMILES.

Test in all cases: biochemical
Format in all cases: biochemical

In experiment [1] the target is T1, 363 human kinases (including Aurora A/B/C) (Homo sapiens, UniProt P54753).
T1 sequence (P54753 34-998): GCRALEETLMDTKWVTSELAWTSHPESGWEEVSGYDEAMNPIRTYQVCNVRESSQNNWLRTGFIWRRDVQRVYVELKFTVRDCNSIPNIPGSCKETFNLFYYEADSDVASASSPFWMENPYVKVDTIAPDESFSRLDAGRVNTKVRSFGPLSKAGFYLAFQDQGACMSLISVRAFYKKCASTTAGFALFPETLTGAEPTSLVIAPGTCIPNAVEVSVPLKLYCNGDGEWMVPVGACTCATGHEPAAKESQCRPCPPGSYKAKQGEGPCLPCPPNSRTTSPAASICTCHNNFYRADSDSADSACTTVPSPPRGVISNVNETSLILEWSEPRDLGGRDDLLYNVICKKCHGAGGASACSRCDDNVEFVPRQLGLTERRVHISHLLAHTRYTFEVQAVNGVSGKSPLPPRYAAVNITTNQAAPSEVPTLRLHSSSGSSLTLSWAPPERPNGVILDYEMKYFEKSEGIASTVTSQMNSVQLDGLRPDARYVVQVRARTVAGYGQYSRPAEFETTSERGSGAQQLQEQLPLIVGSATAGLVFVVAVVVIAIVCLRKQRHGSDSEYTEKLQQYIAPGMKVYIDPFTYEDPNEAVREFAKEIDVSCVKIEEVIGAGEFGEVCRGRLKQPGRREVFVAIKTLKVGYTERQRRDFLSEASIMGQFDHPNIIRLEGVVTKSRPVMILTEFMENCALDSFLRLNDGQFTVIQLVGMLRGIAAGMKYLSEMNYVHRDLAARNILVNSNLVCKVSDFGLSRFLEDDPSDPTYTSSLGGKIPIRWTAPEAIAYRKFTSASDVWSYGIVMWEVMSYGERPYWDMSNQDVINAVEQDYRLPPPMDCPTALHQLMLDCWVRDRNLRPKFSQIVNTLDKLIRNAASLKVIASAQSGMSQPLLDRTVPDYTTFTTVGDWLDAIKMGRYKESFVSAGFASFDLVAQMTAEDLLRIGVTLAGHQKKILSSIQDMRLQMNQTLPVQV
Conditions: EPHB3, [ATP] 50 µM; for remaining activity at 0.1 µM: 100 nM; for remaining activity at 0.1 µM / remaining activity at 0.5 µM: read-out: % Enzyme Activity (relative to DMSO controls).
From the text: (§1) However, the Aurora A/B selectivity ratios derived from our in vitro and in vivo data can be compared to prioritize inhibitors.

The target of experiment [2] is 363 human kinases (including Aurora A/B/C) (Homo sapiens, UniProt O43353). Conditions: RIPK2; for remaining activity at 0.1 µM: 100 nM; for remaining activity at 0.1 µM / remaining activity at 0.5 µM: read-out: % Enzyme Activity (relative to DMSO controls).
From the text: as §1
The target in experiment [3] is 363 human kinases (including Aurora A/B/C) (Homo sapiens, UniProt Q16512). Conditions: PKN1/PRK1; for remaining activity at 0.1 µM: 100 nM; for remaining activity at 0.1 µM / remaining activity at 0.5 µM: read-out: % Enzyme Activity (relative to DMSO controls).
From the text: as §1
Experiment [4] concerns the target 363 human kinases (including Aurora A/B/C) (Homo sapiens, UniProt P22607). Conditions: FGFR3, [ATP] 30 µM; for remaining activity at 0.1 µM: 100 nM; for remaining activity at 0.1 µM / remaining activity at 0.5 µM: read-out: % Enzyme Activity (relative to DMSO controls).
From the text: as §1
In experiment [5] the target is 363 human kinases (including Aurora A/B/C) (Homo sapiens, UniProt Q16620). Conditions: TRKB; for remaining activity at 0.1 µM: 100 nM.
From the text: as §1
Experiment [6] addresses 363 human kinases (including Aurora A/B/C) (Homo sapiens, UniProt Q9H4A3). Conditions: WNK1; for remaining activity at 0.1 µM: 100 nM; for remaining activity at 0.1 µM / remaining activity at 0.5 µM: read-out: % Enzyme Activity (relative to DMSO controls).
From the text: as §1
For experiment [7], the target named is 363 human kinases (including Aurora A/B/C) (Homo sapiens, UniProt P41279). Conditions: COT1/MAP3K8, [ATP] 50 µM; for remaining activity at 0.1 µM: 100 nM; for remaining activity at 0.1 µM / remaining activity at 0.5 µM: read-out: % Enzyme Activity (relative to DMSO controls).
From the text: as §1
The target of experiment [8] is 363 human kinases (including Aurora A/B/C) (Homo sapiens, UniProt P04629). Conditions: TRKA; for remaining activity at 0.1 µM: 100 nM.
From the text: as §1
For experiment [9], the target named is T2, 363 human kinases (including Aurora A/B/C) (Homo sapiens, UniProt Q04771).
T2 sequence (Q04771 21-509): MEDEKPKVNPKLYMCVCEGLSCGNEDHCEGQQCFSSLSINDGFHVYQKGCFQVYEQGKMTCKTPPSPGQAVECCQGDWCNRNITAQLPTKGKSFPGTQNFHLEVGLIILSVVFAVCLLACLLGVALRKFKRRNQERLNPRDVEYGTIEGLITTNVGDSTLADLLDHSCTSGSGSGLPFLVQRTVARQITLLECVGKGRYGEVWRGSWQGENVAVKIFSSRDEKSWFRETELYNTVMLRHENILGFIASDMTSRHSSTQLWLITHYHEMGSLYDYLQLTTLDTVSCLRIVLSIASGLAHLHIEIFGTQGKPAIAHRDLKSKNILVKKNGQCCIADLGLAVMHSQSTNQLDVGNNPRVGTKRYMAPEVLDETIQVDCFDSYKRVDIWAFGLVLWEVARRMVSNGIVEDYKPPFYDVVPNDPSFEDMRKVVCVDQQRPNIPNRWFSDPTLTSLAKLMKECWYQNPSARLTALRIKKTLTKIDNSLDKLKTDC
Conditions: ALK2/ACVR1, [ATP] 20 µM; for remaining activity at 0.1 µM: 100 nM; for remaining activity at 0.1 µM / remaining activity at 0.5 µM: read-out: % Enzyme Activity (relative to DMSO controls).
From the text: as §1

For experiment [10], the target named is 363 human kinases (including Aurora A/B/C) (Homo sapiens, UniProt Q9UKE5). Conditions: TNIK; for remaining activity at 0.1 µM: 100 nM; for remaining activity at 0.1 µM / remaining activity at 0.5 µM: read-out: % Enzyme Activity (relative to DMSO controls).
From the text: as §1
In experiment [11] the target is 363 human kinases (including Aurora A/B/C) (Homo sapiens, UniProt Q04912). Conditions: RON/MST1R; for remaining activity at 0.1 µM: 100 nM; for remaining activity at 0.1 µM / remaining activity at 0.5 µM: read-out: % Enzyme Activity (relative to DMSO controls).
From the text: as §1
[12] abbreviates: read-out: % Enzyme Activity (relative to DMSO controls).
Where [13] appears, read: 500 nM, read-out: % Enzyme Activity (relative to DMSO controls).

Chain of 363 human kinases (including Aurora A/B/C) (Homo sapiens, UniProt P04629) (P04629 33-796): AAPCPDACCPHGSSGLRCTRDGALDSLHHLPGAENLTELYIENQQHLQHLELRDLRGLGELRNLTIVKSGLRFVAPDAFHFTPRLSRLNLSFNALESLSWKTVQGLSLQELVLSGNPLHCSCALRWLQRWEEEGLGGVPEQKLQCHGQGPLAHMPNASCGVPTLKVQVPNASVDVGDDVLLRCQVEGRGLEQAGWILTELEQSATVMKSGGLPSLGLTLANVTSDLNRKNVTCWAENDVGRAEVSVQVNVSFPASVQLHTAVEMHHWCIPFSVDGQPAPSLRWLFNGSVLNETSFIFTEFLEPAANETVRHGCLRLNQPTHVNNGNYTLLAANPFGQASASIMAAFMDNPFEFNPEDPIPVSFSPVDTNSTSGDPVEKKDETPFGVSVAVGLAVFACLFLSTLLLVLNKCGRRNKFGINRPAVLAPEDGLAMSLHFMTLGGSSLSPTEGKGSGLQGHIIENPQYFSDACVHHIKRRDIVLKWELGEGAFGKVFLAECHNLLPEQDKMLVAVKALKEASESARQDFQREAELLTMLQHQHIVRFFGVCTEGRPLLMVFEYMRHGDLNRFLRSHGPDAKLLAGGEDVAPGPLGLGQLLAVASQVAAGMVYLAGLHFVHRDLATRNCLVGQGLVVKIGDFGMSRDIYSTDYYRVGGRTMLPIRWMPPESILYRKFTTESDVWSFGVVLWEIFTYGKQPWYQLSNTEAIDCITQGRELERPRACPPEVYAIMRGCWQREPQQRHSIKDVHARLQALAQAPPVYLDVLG
Chain of 363 human kinases (including Aurora A/B/C) (Homo sapiens, UniProt Q9H4A3) (Q9H4A3 whole entry): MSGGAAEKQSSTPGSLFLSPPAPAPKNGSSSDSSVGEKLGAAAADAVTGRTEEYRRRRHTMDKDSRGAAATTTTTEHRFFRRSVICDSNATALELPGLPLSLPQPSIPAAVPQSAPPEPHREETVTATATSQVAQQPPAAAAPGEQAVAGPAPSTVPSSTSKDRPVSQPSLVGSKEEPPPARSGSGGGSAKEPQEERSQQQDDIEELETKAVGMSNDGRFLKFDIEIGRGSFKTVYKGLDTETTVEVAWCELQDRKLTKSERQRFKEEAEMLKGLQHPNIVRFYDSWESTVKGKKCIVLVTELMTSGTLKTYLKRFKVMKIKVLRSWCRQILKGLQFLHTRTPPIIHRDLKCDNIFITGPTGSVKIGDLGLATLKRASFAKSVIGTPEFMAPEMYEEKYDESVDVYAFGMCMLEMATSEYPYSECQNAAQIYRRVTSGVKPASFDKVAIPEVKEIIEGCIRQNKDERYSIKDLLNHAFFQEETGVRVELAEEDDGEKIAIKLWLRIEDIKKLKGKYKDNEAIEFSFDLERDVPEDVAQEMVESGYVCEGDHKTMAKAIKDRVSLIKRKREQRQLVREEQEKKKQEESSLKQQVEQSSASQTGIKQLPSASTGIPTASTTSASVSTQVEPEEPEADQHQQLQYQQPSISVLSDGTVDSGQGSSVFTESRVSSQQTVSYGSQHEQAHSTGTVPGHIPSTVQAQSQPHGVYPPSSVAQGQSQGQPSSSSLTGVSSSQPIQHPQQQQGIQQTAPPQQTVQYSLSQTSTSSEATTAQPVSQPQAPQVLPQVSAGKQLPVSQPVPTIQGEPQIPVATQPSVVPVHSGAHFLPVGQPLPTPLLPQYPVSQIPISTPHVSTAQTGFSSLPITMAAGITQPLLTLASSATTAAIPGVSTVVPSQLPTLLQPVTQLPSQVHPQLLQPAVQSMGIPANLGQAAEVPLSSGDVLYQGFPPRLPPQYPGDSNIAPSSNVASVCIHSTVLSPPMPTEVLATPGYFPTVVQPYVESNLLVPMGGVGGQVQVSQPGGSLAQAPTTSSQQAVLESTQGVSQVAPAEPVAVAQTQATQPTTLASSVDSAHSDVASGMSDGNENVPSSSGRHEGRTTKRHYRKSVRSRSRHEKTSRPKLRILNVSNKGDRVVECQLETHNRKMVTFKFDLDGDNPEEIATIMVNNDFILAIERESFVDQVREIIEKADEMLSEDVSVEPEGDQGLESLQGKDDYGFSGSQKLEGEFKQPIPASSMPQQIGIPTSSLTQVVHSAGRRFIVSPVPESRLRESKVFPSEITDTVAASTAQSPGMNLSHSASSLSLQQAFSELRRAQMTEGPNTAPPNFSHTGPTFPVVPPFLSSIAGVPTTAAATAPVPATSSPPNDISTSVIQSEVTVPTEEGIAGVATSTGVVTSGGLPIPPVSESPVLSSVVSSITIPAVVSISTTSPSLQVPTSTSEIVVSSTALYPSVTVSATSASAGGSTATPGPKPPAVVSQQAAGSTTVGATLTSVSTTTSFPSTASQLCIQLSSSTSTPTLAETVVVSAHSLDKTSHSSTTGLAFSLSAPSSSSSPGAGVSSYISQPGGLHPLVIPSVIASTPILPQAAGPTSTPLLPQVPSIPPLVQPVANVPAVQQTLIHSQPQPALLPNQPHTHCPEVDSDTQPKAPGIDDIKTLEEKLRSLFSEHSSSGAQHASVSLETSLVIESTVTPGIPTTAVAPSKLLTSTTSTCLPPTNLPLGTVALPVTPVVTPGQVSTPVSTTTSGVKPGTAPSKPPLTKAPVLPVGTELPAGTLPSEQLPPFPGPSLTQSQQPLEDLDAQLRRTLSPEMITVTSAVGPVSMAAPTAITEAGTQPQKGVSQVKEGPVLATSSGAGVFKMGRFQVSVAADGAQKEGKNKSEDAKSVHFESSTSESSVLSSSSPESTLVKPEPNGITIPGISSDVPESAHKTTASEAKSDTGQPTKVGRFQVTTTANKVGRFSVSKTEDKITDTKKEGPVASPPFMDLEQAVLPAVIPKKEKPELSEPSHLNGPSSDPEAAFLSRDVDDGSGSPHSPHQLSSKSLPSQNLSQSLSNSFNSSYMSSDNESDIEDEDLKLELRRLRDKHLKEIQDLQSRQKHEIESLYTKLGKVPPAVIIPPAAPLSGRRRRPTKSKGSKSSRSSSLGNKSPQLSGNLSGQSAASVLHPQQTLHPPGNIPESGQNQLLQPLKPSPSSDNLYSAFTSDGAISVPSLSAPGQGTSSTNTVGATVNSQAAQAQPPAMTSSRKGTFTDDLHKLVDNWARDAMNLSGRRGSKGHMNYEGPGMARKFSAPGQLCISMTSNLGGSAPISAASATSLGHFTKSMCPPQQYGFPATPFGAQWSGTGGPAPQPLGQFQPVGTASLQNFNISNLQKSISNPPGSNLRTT
Chain of 363 human kinases (including Aurora A/B/C) (Homo sapiens, UniProt P22607) (P22607 23-806): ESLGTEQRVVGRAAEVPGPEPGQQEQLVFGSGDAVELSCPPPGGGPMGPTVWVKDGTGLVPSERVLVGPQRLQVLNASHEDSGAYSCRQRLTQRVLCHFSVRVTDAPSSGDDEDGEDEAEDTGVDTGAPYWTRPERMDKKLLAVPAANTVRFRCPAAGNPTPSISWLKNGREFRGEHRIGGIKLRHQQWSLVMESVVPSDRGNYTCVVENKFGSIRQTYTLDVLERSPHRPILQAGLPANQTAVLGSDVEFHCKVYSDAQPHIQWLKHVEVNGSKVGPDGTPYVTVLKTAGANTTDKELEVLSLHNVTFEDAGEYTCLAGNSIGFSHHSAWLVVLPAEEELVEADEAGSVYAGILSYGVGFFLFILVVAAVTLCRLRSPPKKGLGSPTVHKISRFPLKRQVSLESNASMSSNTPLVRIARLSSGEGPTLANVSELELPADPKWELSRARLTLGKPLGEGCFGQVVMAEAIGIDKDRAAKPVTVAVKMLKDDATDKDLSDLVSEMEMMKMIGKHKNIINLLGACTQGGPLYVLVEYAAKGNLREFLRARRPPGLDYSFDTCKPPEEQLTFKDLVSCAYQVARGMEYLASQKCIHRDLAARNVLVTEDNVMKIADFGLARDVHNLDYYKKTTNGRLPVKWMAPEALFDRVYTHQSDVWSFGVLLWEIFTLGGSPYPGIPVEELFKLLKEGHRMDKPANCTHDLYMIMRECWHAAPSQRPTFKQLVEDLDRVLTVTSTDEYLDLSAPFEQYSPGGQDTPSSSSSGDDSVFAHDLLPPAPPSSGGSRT
Chain of 363 human kinases (including Aurora A/B/C) (Homo sapiens, UniProt O43353) (O43353 whole entry): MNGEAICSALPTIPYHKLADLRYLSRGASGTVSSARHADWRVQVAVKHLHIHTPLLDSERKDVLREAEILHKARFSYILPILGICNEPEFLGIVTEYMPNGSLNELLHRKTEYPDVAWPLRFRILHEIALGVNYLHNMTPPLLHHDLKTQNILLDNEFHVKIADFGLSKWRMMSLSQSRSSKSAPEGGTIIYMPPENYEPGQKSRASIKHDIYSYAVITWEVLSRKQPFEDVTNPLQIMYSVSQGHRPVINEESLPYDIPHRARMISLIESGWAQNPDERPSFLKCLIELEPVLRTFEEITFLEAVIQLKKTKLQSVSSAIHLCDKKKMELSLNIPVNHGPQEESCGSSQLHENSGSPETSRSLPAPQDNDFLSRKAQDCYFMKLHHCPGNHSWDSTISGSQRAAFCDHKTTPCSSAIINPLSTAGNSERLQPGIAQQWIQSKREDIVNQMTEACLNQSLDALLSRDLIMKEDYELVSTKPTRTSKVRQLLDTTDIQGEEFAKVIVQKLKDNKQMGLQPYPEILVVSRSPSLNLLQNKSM
Chain of 363 human kinases (including Aurora A/B/C) (Homo sapiens, UniProt P41279) (P41279 whole entry): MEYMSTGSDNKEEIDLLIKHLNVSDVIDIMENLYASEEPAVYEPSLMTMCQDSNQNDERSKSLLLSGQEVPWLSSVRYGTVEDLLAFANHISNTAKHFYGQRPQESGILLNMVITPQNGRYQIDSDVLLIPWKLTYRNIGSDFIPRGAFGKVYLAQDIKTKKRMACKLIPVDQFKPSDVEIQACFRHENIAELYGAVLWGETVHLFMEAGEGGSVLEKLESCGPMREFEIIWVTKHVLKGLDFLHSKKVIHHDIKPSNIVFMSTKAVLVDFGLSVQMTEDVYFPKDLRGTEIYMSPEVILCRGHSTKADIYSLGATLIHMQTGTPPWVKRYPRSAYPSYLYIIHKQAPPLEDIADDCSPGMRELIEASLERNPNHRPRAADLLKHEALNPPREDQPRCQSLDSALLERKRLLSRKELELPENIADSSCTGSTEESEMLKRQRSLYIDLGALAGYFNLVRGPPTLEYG

Take `CCn1cc(-c2ccnc3[nH]c(-c4cccc(CN(C)C)c4)cc23)c(-c2ccc(NC(=O)N(C)C)cc2)n1` [GSK1070916]: the remaining activity at 0.1 µM in experiment [1] turned out to be 94.5%; in experiment [2], 116%; in experiment [3], 103%; in experiment [4], 63.8%; in experiment [5] (setting [12]), 108%; in [6], 84.3%. Moreover, the remaining activity at 0.1 µM in [7] was 87.8%; in [8] (setting [12]), 87.7%; in experiment [9], 130%; in experiment [10] it was 57.3%; in experiment [11] it was 93.8%.
On to `O=C(O)[C@]1(Cc2cccc(Nc3nccs3)n2)CC[C@@H](Oc2cccc(Cl)c2F)CC1` [MK-5108], for which the remaining activity at 0.1 µM in [1] amounted to 102%; in experiment [2] it was 89.1%; in experiment [3] it was 96%; in experiment [4], 64.9%; in experiment [5] (setting [12]), 1.79%; in experiment [6], 94%. Also, the remaining activity at 0.1 µM in [7] worked out at 101%; in experiment [8] (setting [12]), 8.42%; in experiment [9], 116%; in experiment [10], 49.5%; in experiment [11], 101%. The remaining activity at 0.5 µM in experiment [1] (500 nM) is 89.5%; in [2] (500 nM) it was 60%; in [3] (500 nM), 115%; in experiment [4] (500 nM), 31.5%; in experiment [6] (500 nM), 86.4%; in experiment [7] (500 nM), 91%. Further, the remaining activity at 0.5 µM in [9] (500 nM) turned out to be 34.5%; in experiment [10] (500 nM), 14.8%; in experiment [11] (500 nM), 94.1%.
Take `O=C(c1cccc(Cl)c1F)N1CCN(Cc2cccc(Nc3nccs3)n2)CC1` [MK-8745]: the “% Enzyme Activity (relative to DMSO controls)” value was 92.59% in experiment [1] (500 nM); 82.53% in [2] (500 nM); 94.45% in [3] (500 nM); 95.75% in [4] (500 nM); 8.70% in [5] (500 nM); 90.95% in experiment [6] (500 nM). The “% Enzyme Activity (relative to DMSO controls)” value in experiment [7] (500 nM) is 88.35%; in experiment [8] (500 nM) it was 32.47%; in [9] (500 nM) it was 140.43%; in experiment [10] (500 nM) it was 77.61%; in experiment [11] (500 nM), 94.45%. Also, the remaining activity at 0.5 µM in experiment [1] (500 nM) was 93%; in experiment [2] (500 nM), 89.3%; in experiment [3] (500 nM), 96.7%; in experiment [4] (500 nM) it was 95.9%; in experiment [5] (setting [13]) it was 9.04%; in experiment [6] (500 nM), 91.3%. In addition, the remaining activity at 0.5 µM is 91.3% in experiment [7] (500 nM); 34.6% in [8] (setting [13]); 146% in experiment [9] (500 nM); 81.3% in experiment [10] (500 nM); 96.3% in experiment [11] (500 nM).

(Values after publication PMC4685510, “A Cell Biologist’s Field Guide to Aurora Kinase Inhibitors” (Frontiers in Oncology, 2015).)
